Literature values, collected in US4800194A, “Acylphosphorotriamides useful as lipid-altering agents” (priority 1986, dated 1989).

Key:
pseudocholinesterase = conditions: accidental poisoning; cited from earlier work
[1] = accidental poisoning; cited from earlier work

CCOP(=S)(OCC)Oc1ccc([N+](=O)[O-])cc1 [parathione]
blood plasma level of pseudocholinesterase (pseudocholinesterase): markedly decreased
HDL [1]: increased
blood plasma level of LDL [1]: markedly decreased
